Laboratory results from ChEMBL document CHEMBL3351435, “New pyrrole derivatives with potent tubulin polymerization inhibiting activity as anticancer agents including hedgehog-dependent cancer” (J Med Chem, 2014).
pIC50: −log10 of the molar value. Active and inactive are the calls of the source. The calls are words filed in the database; no cut-off is given here.

Assays:
[1] = Cytotoxicity against human D283 cells; assay type: functional, cell-based
HeLa [2] = experiment: Induction of apoptosis in human HeLa cells assessed as failure of MT elongation at 20 nM by immunofluorescence analysis; assay type: functional, cell-based
Mus musculus [3] = experiment: Tlast in CD-1 mouse at 15 mg/kg, po; assay type: ADME, organism-based; set-up: dose 15 mg/kg, route oral; conditions: in vivo
HeLa [4] = experiment: Induction of apoptosis in human HeLa cells assessed as blockage of mitotic progression at 20 to 100 nM by annexin V staining-based immunofluorescence microscopy; assay type: functional, cell-based
HeLa [5] = experiment: Cell cycle arrest in human HeLa cells assessed as accumulation at G2/M phase at 20 nM by propidium iodide staining-based flow cytometry; assay type: functional
[6] = Tmax in CD-1 mouse at 15 mg/kg, po; assay type: ADME, organism-based; set-up: dose 15 mg/kg, route oral; conditions: in vivo
HepG2 [7] = experiment: Induction of apoptosis in human HepG2 cells at 500 to 2000 nM after 48 hrs by annexin-V/propidium iodide staining-based flow cytometry; assay type: functional, cell-based
HeLa [8] = experiment: Cell cycle arrest in human HeLa cells assessed as accumulation at G2/M phase at 100 nM by propidium iodide staining-based flow cytometry; assay type: functional
[9] = AUC infinity in CD-1 mouse at 5 mg/kg, iv; assay type: ADME, organism-based; set-up: time infinity, dose 5 mg/kg, route intravenous; conditions: plasma
HeLa [10] = experiment: Cell cycle arrest in human HeLa cells assessed as reduction in mitotic slippage at 100 nM by annexin V staining-based immunofluorescence microscopy; assay type: functional
A549 = experiment: Cytotoxicity against human A549 cells assessed as growth inhibition after 48 hrs by MTT method; assay type: functional, cell-based; conditions: A549, 48 h
CYP2D6 = CYP2D6 (Homo sapiens, UniProt P10635); experiment: Inhibition of human CYP2D6 using quinidine as substrate at 1 uM; assay type: ADME; conditions: probe quinidine
Tubulin = experiment: Inhibition of tubulin (unknown origin) polymerization incubated 15 mins prior to GTP addition by spectrophotometry; assay type: protein-complex assay, Homo sapiens
HT-29 = experiment: Cytotoxicity against human HT-29 cells assessed as growth inhibition after 48 hrs by MTT method; assay type: functional, cell-based; conditions: HT-29, 48 h
HepG2 [11] = experiment: Cell cycle arrest in human HepG2 cells at 500 to 2000 nM incubated for 24 hrs followed by compound washout measured after 24 hrs; assay type: functional, cell-based
HeLa [12] = experiment: Cell cycle arrest in human HeLa cells assessed as mitotic rounded-up phenotype at 100 nM by light microscopy; assay type: functional, cell-based
Mus musculus [13] = experiment: Clast in CD-1 mouse at 5 mg/kg, iv; assay type: ADME, organism-based; set-up: dose 5 mg/kg, route intravenous; conditions: in vivo
[14] = Cytotoxicity against human MESSA cells assessed as growth inhibition after 72 hrs by CellTitre-Glo assay; assay type: functional, cell-based; conditions: MES-SA
[15] = Mean residence time in CD-1 mouse at 5 mg/kg, iv; assay type: ADME, organism-based; set-up: dose 5 mg/kg, route intravenous; conditions: in vivo
[16] = Mean residence time in CD-1 mouse at 15 mg/kg, po; assay type: ADME, organism-based; set-up: dose 15 mg/kg, route oral; conditions: in vivo
CYP2C9 = CYP2C9 (Homo sapiens, UniProt P11712); experiment: Inhibition of human CYP2C9 using sulfaphenazole as substrate at 1 uM; assay type: ADME; conditions: probe sulfaphenazole
HepG2 [17] = experiment: Cell cycle arrest in human HepG2 cells assessed as accumulation at G2/M phase at 500 nM after 24 hrs by propidium iodide staining-based flow cytometry; assay type: functional
HeLa [18] = experiment: Cell cycle arrest in human HeLa cells by propidium iodide staining-based flow cytometry; assay type: functional
[19] = Inhibition of hedgehog signaling in mouse NIH/3T3 Shh-Light II cells after 48 hrs by luciferase reporter gene assay; assay type: functional, cell-based
HeLa [20] = experiment: Cell cycle arrest in human HeLa cells assessed as mitotic rounded-up phenotype at 20 nM by light microscopy; assay type: functional, cell-based
[21] = Volume of distribution at steady state in CD-1 mouse at 5 mg/kg, iv; assay type: ADME, organism-based; set-up: dose 5 mg/kg, route intravenous; conditions: in vivo, read-out: Vdss
Mus musculus [22] = experiment: AUC (0 to 480 mins) in CD-1 mouse at 15 mg/kg, po; assay type: ADME, organism-based, Plasma; set-up: time < 8 hr, dose 15 mg/kg, route oral; conditions: in vivo, 8 h
[23] = Cytotoxicity against human PC3 cells assessed as growth inhibition after 48 hrs by MTT method; assay type: functional, cell-based; conditions: PC-3, 48 h
HepG2 [24] = experiment: Cell cycle arrest in human HepG2 cells assessed as rounded cells at 500 nM after 24 hrs by propidium iodide staining-based flow cytometry; assay type: functional
[25] = Cytotoxicity against human MESSA/DX5 cells assessed as growth inhibition after 72 hrs by CellTitre-Glo assay; assay type: functional, cell-based; conditions: MES-SA/Dx5, 72 h
NCI/ADR-RES = experiment: Cytotoxicity against human NCI/ADR-RES cells assessed as growth inhibition after 96 hrs by Giemsa staining-based light microscopy; assay type: functional, cell-based
[26] = Clearance in CD-1 mouse at 5 mg/kg, iv; assay type: ADME, organism-based; set-up: dose 5 mg/kg, route intravenous; conditions: in vivo
[27] = Elimination half life in CD-1 mouse at 5 mg/kg, iv; assay type: ADME, organism-based; set-up: dose 5 mg/kg, route intravenous; conditions: in vivo, read-out: beta t1/2
MCF7 = experiment: Cytotoxicity against human MCF7 cells after 96 hrs by Giemsa staining-based light microscopy; assay type: functional, cell-based; conditions: MCF7, 96 h
[28] = Elimination half life in CD-1 mouse at 15 mg/kg, po; assay type: ADME, organism-based; set-up: dose 15 mg/kg, route oral; conditions: in vivo, read-out: beta t1/2
cells = conditions: Homo sapiens, OVCAR-8, 96 h
Description: Cytotoxicity against human OVCAR8 cells assessed as growth inhibition after 96 hrs by Giemsa staining-based light microscopy

Tubulin (Homo sapiens) = Tubulin (Homo sapiens) (UniProt P68371+Q9H4B7+P0DPH7+P68366+Q13509+Q71U36+P04350+Q3ZCM7+P07437+P68363+Q9BQE3+Q6PEY2+Q13885+Q9BVA1+Q9BUF5); experiment: Displacement of [3H]colchicine from tubulin (unknown origin) at 5 uM after 10 mins; assay type: protein-complex assay
RD [29] = experiment: Cytotoxicity against human RD cells assessed as growth inhibition after 48 hrs by MTT method; assay type: functional, cell-based
CYP2C19 = CYP2C19 (Homo sapiens, UniProt P33261); experiment: Inhibition of human CYP2C19 using tranylcypromine as substrate at 1 uM; assay type: ADME; conditions: probe tranylcypromine
[30] = Cmax in CD-1 mouse at 15 mg/kg, po; assay type: ADME, organism-based; set-up: dose 15 mg/kg, route oral; conditions: in vivo
RD [31] = experiment: Induction of apoptosis in human RD cells at 500 to 2000 nM after 48 hrs by annexin-V/propidium iodide staining-based flow cytometry; assay type: functional, cell-based
RD [32] = experiment: Cell cycle arrest in human RD cells assessed as rounded cells at 500 nM after 24 hrs by propidium iodide staining-based flow cytometry; assay type: functional
[33] = AUC infinity in CD-1 mouse at 15 mg/kg, po; assay type: ADME, organism-based; set-up: time infinity, dose 15 mg/kg, route oral; conditions: plasma
HeLa [34] = experiment: Induction of apoptosis in human HeLa cells assessed as blockage of mitotic progression at 100 nM by annexin V staining-based immunofluorescence microscopy; assay type: functional, cell-based
HeLa [35] = experiment: Cytotoxicity against human HeLa cells assessed as growth inhibition after 48 hrs by MTT method; assay type: functional, cell-based
K562 = experiment: Cytotoxicity against human K562 cells assessed as growth inhibition after 96 hrs by Giemsa staining-based light microscopy; assay type: functional, cell-based; conditions: K562, 96 h
RD [36] = experiment: Cell cycle arrest in human RD cells assessed as accumulation at G2/M phase at 500 nM after 24 hrs by propidium iodide staining-based flow cytometry; assay type: functional
HepG2 [37] = experiment: Cytotoxicity against human HepG2 cells assessed as growth inhibition after 48 hrs by MTT method; assay type: functional, cell-based; conditions: HepG2, 48 h
Mus musculus [38] = experiment: Oral bioavailability (last) in CD-1 mouse at 15 mg/kg; assay type: ADME, organism-based; conditions: in vivo
[39] = Cell cycle arrest in human PC3 cells assessed as rounded cells at 500 nM after 24 hrs by propidium iodide staining-based flow cytometry; assay type: functional; conditions: PC-3

CYP2D6, sequence (P10635 whole entry): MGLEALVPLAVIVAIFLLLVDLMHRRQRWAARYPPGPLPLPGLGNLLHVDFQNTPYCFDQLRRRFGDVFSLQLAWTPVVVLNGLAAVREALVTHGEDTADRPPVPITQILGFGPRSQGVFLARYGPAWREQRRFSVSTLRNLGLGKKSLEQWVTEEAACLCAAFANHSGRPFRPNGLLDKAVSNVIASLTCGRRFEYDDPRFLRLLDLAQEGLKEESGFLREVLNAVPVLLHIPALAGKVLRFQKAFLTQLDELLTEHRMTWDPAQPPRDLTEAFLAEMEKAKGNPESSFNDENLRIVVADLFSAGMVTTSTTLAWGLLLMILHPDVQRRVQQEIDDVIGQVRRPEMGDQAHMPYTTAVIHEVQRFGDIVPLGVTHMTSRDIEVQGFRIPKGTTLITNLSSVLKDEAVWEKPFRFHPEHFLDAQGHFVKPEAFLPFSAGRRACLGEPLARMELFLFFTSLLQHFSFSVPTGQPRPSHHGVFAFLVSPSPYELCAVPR
CYP2C19, sequence (P33261 whole entry): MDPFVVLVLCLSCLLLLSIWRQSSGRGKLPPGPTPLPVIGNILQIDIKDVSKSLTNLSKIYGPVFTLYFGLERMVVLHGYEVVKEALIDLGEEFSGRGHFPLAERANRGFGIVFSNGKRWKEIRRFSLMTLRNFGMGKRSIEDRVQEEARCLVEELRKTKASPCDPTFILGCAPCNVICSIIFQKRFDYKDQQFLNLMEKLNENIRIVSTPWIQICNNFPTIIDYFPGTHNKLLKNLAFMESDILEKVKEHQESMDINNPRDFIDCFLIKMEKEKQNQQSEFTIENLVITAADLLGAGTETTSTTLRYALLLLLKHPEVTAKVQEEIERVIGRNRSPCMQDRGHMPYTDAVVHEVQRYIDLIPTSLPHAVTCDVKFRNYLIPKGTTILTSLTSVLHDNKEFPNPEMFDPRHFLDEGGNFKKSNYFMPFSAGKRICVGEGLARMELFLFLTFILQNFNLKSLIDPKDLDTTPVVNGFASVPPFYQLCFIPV
CYP2C9, sequence (P11712 whole entry): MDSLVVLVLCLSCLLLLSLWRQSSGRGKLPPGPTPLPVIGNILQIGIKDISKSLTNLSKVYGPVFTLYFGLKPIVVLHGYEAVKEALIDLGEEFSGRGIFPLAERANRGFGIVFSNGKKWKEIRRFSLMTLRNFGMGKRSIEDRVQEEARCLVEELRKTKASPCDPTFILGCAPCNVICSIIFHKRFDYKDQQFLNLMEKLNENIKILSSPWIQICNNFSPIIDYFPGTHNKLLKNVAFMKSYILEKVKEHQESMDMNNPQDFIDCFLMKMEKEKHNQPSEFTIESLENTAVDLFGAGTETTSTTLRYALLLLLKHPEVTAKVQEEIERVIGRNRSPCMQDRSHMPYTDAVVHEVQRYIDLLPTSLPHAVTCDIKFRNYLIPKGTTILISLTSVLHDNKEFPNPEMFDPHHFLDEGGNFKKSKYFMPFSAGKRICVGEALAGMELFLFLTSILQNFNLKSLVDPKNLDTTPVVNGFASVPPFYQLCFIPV

Q: With COc1cc(C(=O)c2ccn(-c3cccc(N)c3)c2)cc(OC)c1OC as the molecule, how does the pIC50 [1] read?
A: 6.24

Q: What about the Activity (HeLa [2]) of the same molecule?
A: Active

Q: What about the Tlast (Mus musculus [3]) of the same molecule?
A: 480 min

Q: And the Activity (HeLa [4])?
A: Active

Q: And the Activity (HeLa [5])?
A: Active

Q: And the Tmax [6]?
A: 5 min

Q: What about the Activity (HepG2 [7]) of the same molecule?
A: Active

Q: What about the Activity (HeLa [8]) of the same molecule?
A: Active

Q: What about the AUC(0-inf) [9] of the same molecule?
A: 1030 ng·h/mL

Q: What about the Activity (HeLa [10]) of the same molecule?
A: inactive

Q: What about the pIC50 (A549) of the same molecule?
A: 8.00

Q: What about the inhibition at 1 µM (CYP2D6) of the same molecule?
A: < 5%

Q: And the pIC50 (Tubulin)?
A: 5.85

Q: And the pIC50 (HT-29)?
A: 7.22

Q: And the Activity (HepG2 [11])?
A: inactive

Q: And the Activity (HeLa [12])?
A: Active

Q: What about the Clast (Mus musculus [13]) of the same molecule?
A: 2.3 ng/mL

Q: And the pIC50 [14]?
A: 8.74

Q: And the MRT [15]?
A: 0.517 h

Q: And the MRT [16]?
A: 2.42 h

Q: And the inhibition at 1 µM (CYP2C9)?
A: 28.9%

Q: And the Activity (HepG2 [17])?
A: Active

Q: And the Activity (HeLa [18])?
A: Dose-dependent effect

Q: What about the pIC50 [19] of the same molecule?
A: 6.17

Q: What about the inhibition [19] of the same molecule?
A: Dose-dependent effect

Q: And the Activity (HeLa [20])?
A: Active

Q: And the Vd [21]?
A: 2.7 L/kg

Q: And the AUC (Mus musculus [22])?
A: 79441 ng·min/mL

Q: And the pIC50 [23]?
A: 8.01

Q: What about the Activity (HepG2 [24]) of the same molecule?
A: Active

Q: And the pIC50 [25]?
A: 8.34

Q: What about the pIC50 (NCI/ADR-RES) of the same molecule?
A: 9.00

Q: What about the clearance [26] of the same molecule?
A: 80.8 mL/min/kg

Q: And the half-life [27]?
A: 1.23 h

Q: And the pIC50 (MCF7)?
A: 7.82

Q: What about the half-life [28] of the same molecule?
A: 2.98 h

Q: And the pIC50 (cells)?
A: 8.15

Q: What about the inhibition (Tubulin (Homo sapiens)) of the same molecule?
A: 86%

Q: What about the pIC50 (RD [29]) of the same molecule?
A: 7.02

Q: And the inhibition at 1 µM (CYP2C19)?
A: 72.6%

Q: What about the Cmax [30] of the same molecule?
A: 1770 ng/mL

Q: What about the Activity (RD [31]) of the same molecule?
A: Active

Q: And the Activity (RD [32])?
A: Active

Q: What about the AUC(0-inf) [33] of the same molecule?
A: 1470 ng·h/mL

Q: And the Activity (HeLa [34])?
A: Active

Q: What about the pIC50 (HeLa [35]) of the same molecule?
A: 7.52

Q: What about the pIC50 (K562) of the same molecule?
A: 7.70

Q: What about the Activity (RD [36]) of the same molecule?
A: Active

Q: And the pIC50 (HepG2 [37])?
A: 6.56

Q: And the F (Mus musculus [38])?
A: 49%

Q: What about the Activity [39] of the same molecule?
A: Active
